According to publication PMC8840040, “Pharmacokinetic Characterization of the DDAH1 Inhibitors ZST316 and ZST152 in Mice Using a HPLC-MS/MS Method” (Molecules, 2022):
Several values for one entry are separate records, joined by “and”; a condition that tells them apart may be missing. Equal values may be shown once. Read-outs that look alike come from different tables or passages of the source.

Legend:
[1] = Plasma pharmacokinetics and urinary elimination after single oral and intravenous administration; assay type: in vivo, FVB mice; conditions: for urinary excretion, range over oral and intravenous route: 24 h urine, p.o. 60 mg/Kg to i.v. 30 mg/Kg; for clearance: read-out: Clp (plasma clearance) (converted); for Vd: read-out: Vd (volume of distribution); for bioavailability: oral, 60 mg/Kg, read-out: F % (bioavailability); for time up to which detectable in plasma: concentration close to the LLOQ (5 ng/mL)
Protocol: Mice were treated with ZST316 and ZST152 using a dose of 60 mg/Kg (oral gavage) and 30 mg/Kg (intravenous bolus). For pharmacokinetic sampling, blood was collected at 15 and 30 min, and 1, 3, 8, and 24 h post dose. Three mice were analyzed per each time point. After the animals were anesthetized with isoflurane, the blood was drained from the retro-orbital plexus into heparinized tubes, and then centrifuged for 10 min at 4000× g at 4 °C to separate plasma. A 24-h urine fraction was collected in three mice for each drug and route of administration. Plasma and urine samples were stored at −20 °C until analysis by HPLC-MS/MS.
In the preliminary phase of the method set up, we tried different solvents, 2-propanol, methanol (CH3OH), and acetonitrile (CH3CN) at different pH conditions, quickly obtaining a satisfactory recovery with CH3OH: 0.1% formic acid (HCOOH). Briefly, to assay ZST316, 10 µL of IS (ZST152 WS: 500 ng/mL) were added to 100 µL of plasma study samples, standards, or QCs in a polypropylene tube. The sample was then added with 10 µL of ammonium formate (NH4HCO2) 50 mM, mixed by vortex and added with 400 µL CH3OH: 0.1% HCOOH, vortex mixed again for 30 s and centrifuged at 13,200 rpm for 10 min at 4 °C. A volume of 450 µL of the supernatant was transferred to a new polypropylene tube, dried under nitrogen flow, and reconstituted with 100 µL of MP A:B (1:1, v/v). Finally, the mixed samples were centrifuged at 13,200 rpm for 10 min at 4 °C and the supernatant was transferred into glass vials for HPLC-MS/ MS analysis. Plasma samples containing drug concentrations above the highest standard point of the calibration curve were reanalyzed following dilution with the control matrix.
To assay ZST316, 5 µL of IS (ZST152 WS: 100 µg/mL) were added to 50 µL of urine samples, standards, or QCs in a polypropylene tube. After vortex mixing, 490 µL of MP A:B (1:1; v/v) were added to 10 µL of each sample to obtain a final dilution of 1:50. Samples were vortex mixed again for 30 s, centrifuged at 13,200 rpm for 10 min at 4 °C, and, finally, the supernatant was transferred into glass vials for HPLC-MS/ MS analysis. The urine samples with drug concentrations above the highest standard point of the calibration curve were reanalyzed following dilution with control matrix.
[…] chromatography was performed using a series 200 HPLC system (Perkin Elmer, Waltham, MA, USA) under gradient conditions with separation on a HILIC column, 3 µm, 100 A, 2.1 × 150 mm (Waters, Milford, MA, USA), coupled with a 3 µm, 3.9 × 5.0 mm guard column of the same material at the flow rate of 0.2 mL/min. Gradient features: 10% mobile phase (MP) A (NH4HCO2 10 mM, 10% CH3CN, 0.1% HCOOH) and 90% MP B (CH3CN, 0.1% HCOOH) as the initial constant condition; then to 90% MP A in 6 min and the constant condition for 1.5 min. Return to the start condition in 0.5 min and conditioning for 5.5 min. Total run time: 13.5 min. Mass spectrometric detection was performed using an API 4000 triple quadrupole mass spectrometer (SCIEX, Framingham, MA, USA) supplied with a Turbo Ion Spray source set at 350 °C and −4200 V, analyzing biological samples with electrospray ionization (ESI) operating in negative ion mode. Purified air was used as nebulizer gas (Gas 1) and heater gas (Gas 2) and N2 was used as curtain gas and collision activated dissociation gas. They were set to 40, 50, 20, and 4 instrument units (psi), respectively. The declustering potential (DP) was set at −119 V and the collision exit potential (CXP) at –10 V. All parameters of the source were defined by direct infusion of ZST316 and ZST152 1 µg/mL in mobile phase B. The final quantification was carried out in Selected Reaction Monitoring (SRM) with the following transitions: m/z 307.9 → 208.0 (collision energy of −29.5 eV) for ZST316 and m/z 271.9 → 170.9 (collision energy −24.7 eV) for ZST152 (Figure 2 and Figure 3). Data were processed with the software package Analyst 1.6.2 (AB SCIEX). […]

human recombinant DDAH1 = system: human recombinant DDAH1; set-up: method as in PMID 26420019; conditions: cited from earlier work; for IC50 / Ki: human recombinant DDAH1 expressed in HEK293T cells; for IC50: read-out: IC50 towards DDAH1; for Ki: read-out: Ki towards DDAH1
[2] = system: triple-negative breast cancer cells; conditions: cited from earlier work; for suppression of vasculogenic mimicry: in vitro, triple-negative breast cancer cells
cancer cells = conditions: cited from earlier work; for degradation in the culture media: culture media of cancer cell experiments
[3] = FVB, mouse, plasma, iv, 30 mg/kg, i.v. 30 mg/Kg, single bolus
[4] = FVB, mouse, plasma, iv, 30 mg/kg, i.v. 30 mg/Kg, read-out: AUC 0-8h
[5] = FVB, mouse, plasma, iv, 30 mg/kg, i.v. 30 mg/Kg, read-out: AUC 0-last
[6] = FVB, mouse, plasma, iv, 30 mg/kg, i.v. 30 mg/Kg, read-out: Half-life (converted)
[7] = FVB, mouse, plasma, iv, i.v. 30 mg/Kg
[8] = FVB, mouse, plasma, p.o. 60 mg/Kg vs i.v. 30 mg/Kg, dose normalized
[9] = FVB, mouse, plasma, po, 60 mg/kg, p.o. 60 mg/Kg, read-out: AUC 0-8h
[10] = FVB, mouse, plasma, po, 60 mg/kg, p.o. 60 mg/Kg, read-out: AUC 0-last
[11] = FVB, mouse, plasma, po, 60 mg/kg, p.o. 60 mg/Kg, read-out: Half-life (converted)
[12] = FVB, mouse, plasma, po, p.o. 60 mg/Kg

Row | SMILES | urinary excretion, range over oral and intravenous route [1] | Cmax [1, 3] | AUC(0-t) [1, 4] | AUC(0-t) [1, 5] | half-life [1, 6] | AUC(0-inf) [1, 7] | Tmax [1, 7] | clearance [1, 7] | Vd [1, 7] | bioavailability [1, 8] | AUC(0-t) [1, 9] | AUC(0-t) [1, 10] | half-life [1, 11] | AUC(0-inf) [1, 12] | Tmax [1, 12] | 24 h urinary excretion (% of dose) ([1]; i.v. 30 mg/Kg) | time up to which detectable in plasma ([1]; i.v. 30 mg/Kg) | 24 h urinary excretion (% of dose) ([1]; p.o. 60 mg/Kg) | time up to which measurable in plasma ([1]; p.o. 60 mg/Kg) | IC50 (human recombinant DDAH1) | further results
1 | COCCNC(=N)NCCC[C@H](N)c1noc(=O)[nH]1 [ZST152] | 12.5%–22.2% and 12.5–22.2% | 24900 ng/mL | 9250 ng·h/mL | 9250 ng·h/mL | 72 min | 9260 ng·h/mL | 5 min | 54 mL/min/kg | 5.49 L/kg | 33% | 6170 ng·h/mL | 6170 ng·h/mL | 51.6 min | 6180 ng·h/mL | 15 min | 22.2 % of dose | 8 h | 12.5 % of dose | 8 h | 18 µM | half-life ([1]; i.v. 30 mg/Kg, 30 mg/kg): 70.2 min; F % (bioavailability) ([1]; p.o. 60 mg/Kg vs i.v. 30 mg/Kg, dose normalized): 33.3%; urinary excretion relative to that of ZST316 ([1]; regardless of the route of administration): four- to fivefold; Ki (human recombinant DDAH1): 7 µM; suppression of vasculogenic mimicry [2]: suppress vasculogenic mimicry; penetration of the cell membrane of cancer cells and intracellular DDAH1 inhibition (cancer cells): able to successfully penetrate the cell membrane of cancer cells and inhibit DDAH1 intracellularly; degradation in the culture media (cancer cells): did not significantly degrade
2 | COCCNC(=N)NCCC[C@H](N)C(=O)NS(C)(=O)=O [ZST316] | 2.3%–7.5% and 2.3–7.5% | 67400 ng/mL | 21400 ng·h/mL | 21500 ng·h/mL | 360 min | 21600 ng·h/mL | 5 min | 23.2 mL/min/kg | 12.2 L/kg | < 5% | 1940 ng·h/mL | 1940 ng·h/mL | 97.8 min | 2010 ng·h/mL | 30 min | 7.5 % of dose | 24 h | 2.3 % of dose | 8 h | 3 µM | Cmax ([1]; FVB, mouse, plasma, po, 60 mg/kg, p.o. 60 mg/Kg, single dose): 1020 ng/mL; concentration at 8 h ([1]; FVB, mouse, plasma, po, p.o. 60 mg/Kg, 8 h post dose): 29 ng/mL; AUC after intravenous administration relative to that of ZST152 ([1]; i.v. 30 mg/Kg): approximately twice; Ki (human recombinant DDAH1): 1 µM; greater inhibitory activity towards DDAH1 compared to reference inhibitor L-257 (human recombinant DDAH1; vs L-257): 13 fold; suppression of in vitro vasculogenic mimicry and migration ([2]; MDA-MD-231 cells, ref recent demonstration by our group): suppresses in vitro vasculogenic mimicry and migration; suppression of vasculogenic mimicry [2]: suppress vasculogenic mimicry; penetration of the cell membrane of cancer cells and intracellular DDAH1 inhibition (cancer cells): able to successfully penetrate the cell membrane of cancer cells and inhibit DDAH1 intracellularly; degradation in the culture media (cancer cells): did not significantly degrade
